Three molecules from ChEMBL document CHEMBL4819145, “Synthesis and evaluation of bifunctional PTP4A3 phosphatase inhibitors activating the ER stress pathway” (Bioorg Med Chem Lett, 2021) can be followed below.

Activity calls are given as the source filed them. No cut-off for these calls is given here. Where only a bound is given, the exact number is not on record here.

For assay [1], the system named is MDA-MB-231. As to the kind of experiment: Induction of ER stress in human MDA-MB-231 cells assessed as increase in HSPA5A mRNA expression at 2XEC50 measured after 6 hrs by qPCR method. The class given is functional, cell-based. (In qPCR the cycle at which signal appears reflects the starting amount.)
The subject of assay [2] is MDA-MB-231. As to the kind of experiment: Induction of ER stress in human MDA-MB-231 cells assessed as increase in DDIT3 mRNA expression at 2XEC50 measured after 6 hrs by qPCR method. Type of assay: functional, cell-based.
Assay [3] has as its target T1, Tyrosine-protein phosphatase non-receptor type 1 (Homo sapiens) (UniProt P18031).
T1 sequence (whole entry): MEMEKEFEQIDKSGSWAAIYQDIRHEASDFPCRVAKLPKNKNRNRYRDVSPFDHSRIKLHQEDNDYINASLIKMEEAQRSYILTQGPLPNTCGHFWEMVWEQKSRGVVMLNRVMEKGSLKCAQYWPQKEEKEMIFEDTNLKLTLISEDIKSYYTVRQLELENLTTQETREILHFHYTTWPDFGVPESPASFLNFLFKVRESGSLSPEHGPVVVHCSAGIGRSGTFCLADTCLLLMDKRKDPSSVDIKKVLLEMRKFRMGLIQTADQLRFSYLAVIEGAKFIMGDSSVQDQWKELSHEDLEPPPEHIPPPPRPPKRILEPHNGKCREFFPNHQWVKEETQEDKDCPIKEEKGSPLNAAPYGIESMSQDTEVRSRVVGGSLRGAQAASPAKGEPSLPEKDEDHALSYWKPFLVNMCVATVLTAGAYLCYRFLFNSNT
As to the kind of experiment: Inhibition of PTP1B (unknown origin) at 1 uM.

Assay [4] concerns MDA-MB-231. Briefly: Induction of ER stress in human MDA-MB-231 cells assessed as increase in sXbp1 mRNA expression at 2XEC50 measured after 6 hrs by qPCR method. Type of assay: functional, cell-based.
The target of assay [5] is T2, M-phase inducer phosphatase 2 (Homo sapiens) (UniProt P30305).
T2 sequence (whole entry): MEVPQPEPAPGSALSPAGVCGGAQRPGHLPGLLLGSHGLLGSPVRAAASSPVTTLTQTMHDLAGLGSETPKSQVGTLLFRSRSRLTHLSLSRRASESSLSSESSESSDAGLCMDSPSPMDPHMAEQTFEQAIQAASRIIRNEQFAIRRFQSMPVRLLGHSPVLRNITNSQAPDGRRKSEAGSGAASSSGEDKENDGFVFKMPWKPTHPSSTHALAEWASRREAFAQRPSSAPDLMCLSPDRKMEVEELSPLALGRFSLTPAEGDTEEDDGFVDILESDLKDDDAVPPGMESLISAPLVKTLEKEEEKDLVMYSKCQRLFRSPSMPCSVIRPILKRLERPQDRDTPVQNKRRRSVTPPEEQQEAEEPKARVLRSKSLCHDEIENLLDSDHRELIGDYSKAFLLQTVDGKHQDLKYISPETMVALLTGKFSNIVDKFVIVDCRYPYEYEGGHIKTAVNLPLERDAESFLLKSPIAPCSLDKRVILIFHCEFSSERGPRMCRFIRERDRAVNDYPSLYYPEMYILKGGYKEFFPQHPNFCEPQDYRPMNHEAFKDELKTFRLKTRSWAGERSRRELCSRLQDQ
Briefly: Inhibition of CDC25B (unknown origin) at 1 uM.

In assay [6] the target is Dual specificity protein phosphatase 3 (Homo sapiens) (UniProt P51452). As to the kind of experiment: Inhibition of DUSP3 (unknown origin) at 1 uM.
The subject of assay [7] is MDA-MB-231. As to the kind of experiment: cells. As to conditions: Homo sapiens, MDA-MB-231, 72 h.
For assay [8], the system named is MDA-MB-231. Briefly: Cytotoxicity against JMS-053-pretreated human MDA-MB-231 cells at 20 to 60 uM measured after 72 hrs by CellTiter-Glo assay. The conditions noted are these: dose 20-60 µM. The class given is functional, cell-based. (In general: In ATP-based viability assays light output follows the ATP content of the culture.)
Assay [9] has as its system MDA-MB-231. As to the kind of experiment: Induction of ER stress in human MDA-MB-231 cells assessed as increase in HSPA5A mRNA expression at 2 mM measured after 2 hrs by qPCR method. Type of assay: functional, cell-based.
The test system of assay [10] is MDA-MB-231. As to the kind of experiment: Induction of ER stress in human MDA-MB-231 cells assessed as increase in DDIT3 mRNA expression at 2 mM measured after 2 hrs by qPCR method. The class given is functional, cell-based.
Assay [11] has as its system MDA-MB-231. Briefly: Induction of ER stress in human MDA-MB-231 cells assessed as increase in sXbp1 mRNA expression at 2 mM measured after 2 hrs by qPCR method. Type of assay: functional, cell-based.

Dual specificity protein phosphatase 3 (Homo sapiens), sequence (P51452 whole entry, looked up): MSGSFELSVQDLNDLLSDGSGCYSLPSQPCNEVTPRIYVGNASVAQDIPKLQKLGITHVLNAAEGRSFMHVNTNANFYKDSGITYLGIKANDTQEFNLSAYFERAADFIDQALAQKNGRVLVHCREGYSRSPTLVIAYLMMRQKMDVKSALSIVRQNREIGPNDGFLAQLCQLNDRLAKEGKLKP

For orientation: inhibition means the share of the control response that was lost under treatment. With `N=C1C(=O)NC(=O)c2cc(-c3ccc(OCCCCNC(=O)CC45CC6CC(CC(C6)C4)C5)cc3)sc21`, the outcome with MDA-MB-231 [1], with MDA-MB-231 [2] and in the assay on MDA-MB-231 [4] was Active. For the same molecule, the inhibition in [3], in assay [5] and in assay [6] was < 11% in each case.

By EC50 is commonly meant the concentration giving half of the maximal effect. Low values mean higher potency in that assay, high ones lower potency in that assay. `O=C(CC12CC3CC(CC(C3)C1)C2)NCCCCO`: the EC50 with MDA-MB-231 [7] was > 50 µM. Also, in the assay with MDA-MB-231 [8], the outcome was inactive.

As for `OC(CS)C(O)CS` (stereo unspecified), the outcome in the assay on MDA-MB-231 [9], in the assay on MDA-MB-231 [10] and in the assay on MDA-MB-231 [11] was Active.
